In ChEMBL document CHEMBL2385022, “Therapeutic and pharmacokinetic characterizations of an anti-amyloidogenic bis-styrylbenzene derivative for Alzheimer's disease treatment” (Bioorg Med Chem Lett, 2013):
Calls of active or inactive are those of the source. The calls are words filed in the database; no cut-off is given here.

Key:
[1] = molecular target: Amyloid-beta precursor protein (Homo sapiens) (UniProt P05067); assay: Inhibition of amyloid beta (1-42) fibril aggregation (unknown origin) at 100 uM after 20 hrs by transmission electron microscopic analysis
Rattus norvegicus [2] = assay: Acute toxicity in Sprague-Dawley rat assessed as mortality at 500 to 2000 mg/kg, po after 14 days; type: organism-based; design: dose 500-2000 mg/kg, route oral; details: in vivo, 336 h
[3] = Cmax in ICR mouse brain at 20 mg/kg, po; type: ADME, organism-based; design: dose 20 mg/kg, route oral
[4] = AUC (0 to 24 hrs) in ICR mouse plasma at 20 mg/kg, po; type: ADME, organism-based; design: time < 24 hr, dose 20 mg/kg, route oral
[5] = Acute toxicity in po dosed Sprague-Dawley rat assessed as mortality after 14 days; type: organism-based; details: in vivo
Rattus norvegicus [6] = assay: Toxicity in Sprague-Dawley rat assessed as change in body weight at 1000 mg/kg, po after 5 days (reference value: 148.4 +/- 3.2 g); type: organism-based; design: dose 1000 mg/kg, route oral; details: in vivo, 120 h
Rattus norvegicus [7] = assay: Toxicity in Sprague-Dawley rat assessed as change in body weight at 500 mg/kg, po after 10 days (reference value: 175.9 +/- 5.1 g); type: organism-based; design: dose 500 mg/kg, route oral; details: in vivo, 240 h
[8] = Tmax in ICR mouse plasma at 20 mg/kg, po; type: ADME, organism-based; design: dose 20 mg/kg, route oral
Mus musculus [9] = assay: Ratio of drug level in brain to plasma in ICR mouse at 10 mg/kg, iv […]; details: in vivo
[10] = Cmax in ICR mouse plasma at 10 mg/kg, iv; type: ADME, organism-based; design: dose 10 mg/kg, route intravenous
[11] = AUC (0 to 24 hrs) in ICR mouse brain at 10 mg/kg, iv; type: ADME, organism-based; design: time < 24 hr, dose 10 mg/kg, route intravenous
Mus musculus [12] = assay: Cognitive enhancing effect in amyloid beta (1-42) infused ICR mouse assessed as increase in alternation behavior at 30 mg/kg/day, ip administered 1 day prior to amyloid beta (1-42) infusion and continued for 6 days measured on day 6 by Y-maze test (reference value: 64.1%); type: functional; details: route intraperitoneal
Rattus norvegicus [13] = assay: Toxicity in Sprague-Dawley rat assessed as change in body weight at 500 mg/kg, po after 5 days (reference value: 148.4 +/- 3.2 g); type: organism-based; design: dose 500 mg/kg, route oral; details: in vivo, 120 h
[14] = Apparent permeability from apical to basolateral side in mouse bEND.3 /rat C6 co-culture cell model after 1 hr by Transwell assay; type: ADME
[15] = AUC (0 to 24 hrs) in ICR mouse plasma at 10 mg/kg, iv; type: ADME, organism-based; design: time < 24 hr, dose 10 mg/kg, route intravenous
Rattus norvegicus [16] = assay: Toxicity in Sprague-Dawley rat assessed as change in body weight at 2000 mg/kg, po after 1 day (reference value: 130.6 +/- 4.6 g); type: organism-based; design: dose 2000 mg/kg, route oral; details: in vivo, 24 h
Rattus norvegicus [17] = assay: Toxicity in Sprague-Dawley rat assessed as change in body weight at 2000 mg/kg, po after 14 days (reference value: 199.1 +/- 4.8 g); type: organism-based; design: dose 2000 mg/kg, route oral; details: in vivo, 336 h
Mus musculus [18] = assay: Ratio of drug level in brain to plasma in ICR mouse at 20 mg/kg, po […]; details: in vivo
[19] = Half life in ICR mouse brain at 20 mg/kg, po; type: ADME, organism-based; design: dose 20 mg/kg, route oral
[20] = Cmax in ICR mouse plasma at 20 mg/kg, po; type: ADME, organism-based; design: dose 20 mg/kg, route oral
[21] = AUC (0 to 24 hrs) in ICR mouse brain at 20 mg/kg, po; type: ADME, organism-based; design: time < 24 hr, dose 20 mg/kg, route oral
Rattus norvegicus [22] = assay: Toxicity in Sprague-Dawley rat assessed as change in body weight at 1000 mg/kg, po after 10 days (reference value: 175.9 +/- 5.1 g); type: organism-based; design: dose 1000 mg/kg, route oral; details: in vivo, 240 h
[23] = Half life in ICR mouse plasma at 10 mg/kg, iv; type: ADME, organism-based; design: dose 10 mg/kg, route intravenous
[24] = Oral bioavailability in ICR mouse at 20 mg/kg; type: ADME, organism-based; details: in vivo
[25] = Cmax in ICR mouse brain at 10 mg/kg, iv; type: ADME, organism-based; design: dose 10 mg/kg, route intravenous
Rattus norvegicus [26] = assay: Toxicity in Sprague-Dawley rat assessed as change in body weight at 2000 mg/kg, po after 5 days (reference value: 148.4 +/- 3.2 g); type: organism-based; design: dose 2000 mg/kg, route oral; details: in vivo, 120 h
Rattus norvegicus [27] = assay: Toxicity in Sprague-Dawley rat assessed as change in body weight at 1000 mg/kg, po after 1 day (reference value: 130.6 +/- 4.6 g); type: organism-based; design: dose 1000 mg/kg, route oral; details: in vivo, 24 h
[28] = Half life in ICR mouse brain at 10 mg/kg, iv; type: ADME, organism-based; design: dose 10 mg/kg, route intravenous
Rattus norvegicus [29] = assay: Toxicity in Sprague-Dawley rat assessed as change in body weight at 500 mg/kg, po after 1 day (reference value: 130.6 +/- 4.6 g); type: organism-based; design: dose 500 mg/kg, route oral; details: in vivo, 24 h
[30] = Tmax in ICR mouse brain at 10 mg/kg, iv; type: ADME, organism-based; design: dose 10 mg/kg, route intravenous
[31] = Tmax in ICR mouse brain at 20 mg/kg, po; type: ADME, organism-based; design: dose 20 mg/kg, route oral
[32] = Half life in ICR mouse plasma at 20 mg/kg, po; type: ADME, organism-based; design: dose 20 mg/kg, route oral
hERG (KCNH2) = hERG (KCNH2) (Homo sapiens, UniProt Q12809); assay: Inhibition of human ERG in HEK293 cells at 10 uM by patch clamp assay relative to control; type: cell-based; details: HEK293 cells expressing human ERG
Rattus norvegicus [33] = assay: Toxicity in Sprague-Dawley rat assessed as change in body weight at 500 mg/kg, po after 14 days (reference value: 199.1 +/- 4.8 g); type: organism-based; design: dose 500 mg/kg, route oral; details: in vivo, 336 h
Rattus norvegicus [34] = assay: Toxicity in Sprague-Dawley rat assessed as change in body weight at 2000 mg/kg, po after 10 days (reference value: 175.9 +/- 5.1 g); type: organism-based; design: dose 2000 mg/kg, route oral; details: in vivo, 240 h
[35] = Tmax in ICR mouse plasma at 10 mg/kg, iv; type: ADME, organism-based; design: dose 10 mg/kg, route intravenous
Rattus norvegicus [36] = assay: Toxicity in Sprague-Dawley rat assessed as change in body weight at 1000 mg/kg, po after 14 days (reference value: 199.1 +/- 4.8 g); type: organism-based; design: dose 1000 mg/kg, route oral; details: in vivo, 336 h

Chain of hERG (KCNH2) (Q12809 whole entry): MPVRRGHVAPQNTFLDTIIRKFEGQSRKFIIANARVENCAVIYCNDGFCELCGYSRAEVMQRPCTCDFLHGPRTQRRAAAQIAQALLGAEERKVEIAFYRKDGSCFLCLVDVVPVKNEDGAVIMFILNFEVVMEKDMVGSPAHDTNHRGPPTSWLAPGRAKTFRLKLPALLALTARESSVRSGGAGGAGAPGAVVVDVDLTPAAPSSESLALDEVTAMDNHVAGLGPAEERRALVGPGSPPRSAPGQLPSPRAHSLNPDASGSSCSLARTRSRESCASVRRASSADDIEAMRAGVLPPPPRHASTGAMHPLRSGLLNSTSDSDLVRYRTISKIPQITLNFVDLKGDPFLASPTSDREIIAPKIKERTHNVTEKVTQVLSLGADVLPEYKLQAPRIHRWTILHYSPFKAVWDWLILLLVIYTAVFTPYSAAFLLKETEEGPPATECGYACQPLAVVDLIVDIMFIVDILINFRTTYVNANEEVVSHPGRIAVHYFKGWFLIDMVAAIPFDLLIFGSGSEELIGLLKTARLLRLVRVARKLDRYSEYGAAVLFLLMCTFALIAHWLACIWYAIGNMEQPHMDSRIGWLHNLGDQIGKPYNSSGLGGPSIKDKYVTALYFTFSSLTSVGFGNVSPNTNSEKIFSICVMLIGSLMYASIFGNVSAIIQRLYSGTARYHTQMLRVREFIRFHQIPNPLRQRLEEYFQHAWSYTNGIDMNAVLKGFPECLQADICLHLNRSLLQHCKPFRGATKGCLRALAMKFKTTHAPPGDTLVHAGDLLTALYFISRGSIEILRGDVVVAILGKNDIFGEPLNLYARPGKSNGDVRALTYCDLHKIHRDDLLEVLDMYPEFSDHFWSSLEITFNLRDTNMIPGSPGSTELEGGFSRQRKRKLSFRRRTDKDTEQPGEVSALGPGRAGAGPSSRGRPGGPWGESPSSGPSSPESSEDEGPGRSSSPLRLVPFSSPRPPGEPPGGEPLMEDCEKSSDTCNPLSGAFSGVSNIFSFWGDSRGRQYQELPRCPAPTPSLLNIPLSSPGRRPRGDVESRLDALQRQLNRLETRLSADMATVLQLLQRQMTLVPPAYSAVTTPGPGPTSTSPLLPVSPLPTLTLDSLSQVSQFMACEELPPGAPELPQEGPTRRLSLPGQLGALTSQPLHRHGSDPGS
Chain of Amyloid-beta precursor protein (Homo sapiens) (P05067 whole entry): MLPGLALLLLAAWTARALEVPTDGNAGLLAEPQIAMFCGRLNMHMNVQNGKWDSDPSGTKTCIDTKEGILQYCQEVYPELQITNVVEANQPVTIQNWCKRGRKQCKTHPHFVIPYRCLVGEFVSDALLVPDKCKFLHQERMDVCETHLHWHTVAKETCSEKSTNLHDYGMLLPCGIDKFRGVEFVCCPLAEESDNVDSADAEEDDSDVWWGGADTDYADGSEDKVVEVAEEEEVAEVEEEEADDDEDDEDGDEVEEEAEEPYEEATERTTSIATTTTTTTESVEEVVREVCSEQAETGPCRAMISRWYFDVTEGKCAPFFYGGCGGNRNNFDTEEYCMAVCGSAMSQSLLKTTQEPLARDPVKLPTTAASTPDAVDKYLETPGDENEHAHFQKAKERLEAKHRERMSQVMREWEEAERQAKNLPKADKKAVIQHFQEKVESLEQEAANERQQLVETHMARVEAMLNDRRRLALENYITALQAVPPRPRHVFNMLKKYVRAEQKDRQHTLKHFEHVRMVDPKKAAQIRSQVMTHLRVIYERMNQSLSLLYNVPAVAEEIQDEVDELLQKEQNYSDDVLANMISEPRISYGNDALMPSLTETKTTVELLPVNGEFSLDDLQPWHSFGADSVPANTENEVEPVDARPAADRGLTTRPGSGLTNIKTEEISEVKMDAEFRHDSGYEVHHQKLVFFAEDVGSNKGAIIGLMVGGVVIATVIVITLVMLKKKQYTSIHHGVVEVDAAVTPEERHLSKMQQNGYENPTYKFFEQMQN

| Compound | inhibition [1] | Activity (Rattus norvegicus [2]) | Activity (Rattus norvegicus [6]) [g] | Activity (Rattus norvegicus [7]) [g] | Activity (Mus musculus [12]) [%] | Activity (Rattus norvegicus [13]) [g] | Papp A→B at 1 h [14] [×10⁻⁶ cm/s] | Activity (Rattus norvegicus [16]) [g] | Activity (Rattus norvegicus [17]) [g] | Activity (Rattus norvegicus [22]) [g] | Activity (Rattus norvegicus [26]) [g] | Activity (Rattus norvegicus [27]) [g] | Activity (Rattus norvegicus [29]) [g] | inhibition at 10 µM (hERG (KCNH2)) [%] | Activity (Rattus norvegicus [33]) [g] | Activity (Rattus norvegicus [34]) [g] | Activity (Rattus norvegicus [36]) [g] | other results |
| --- | --- | --- | --- | --- | --- | --- | --- | --- | --- | --- | --- | --- | --- | --- | --- | --- | --- | --- |
| COc1cc(/C=C/C(=O)CC(=O)/C=C/c2ccc(O)c(OC)c2)ccc1O | Active | – | – | – | – | – | – | – | – | – | – | – | – | – | – | – | – | – |
| CNc1ccc(/C=C/c2cccc(/C=C/c3ccc(NC)c(OC)c3)c2)cc1OC | – | Non-toxic | – | – | – | – | – | – | – | – | – | – | – | – | – | – | – | – |
| COc1cc(/C=C/c2cccc(/C=C/c3ccc(N(C)C)c(OC)c3)c2)ccc1N(C)C | Active | – | 138.9 | 164.1 | 70 | 142.6 | 670 | 132.4 | 174.6 | 164.2 | 128.3 | 132 | 131.5 | 14 | 183.9 | 157.8 | 182.2 | Cmax [3]: 395 ng/mL; AUC(0-t) at 24 h [4]: 29200 ng·h/mL; LD50 at 336 h [5]: > 2000 mg/kg; Tmax [8]: 1 h; Drug uptake (Mus musculus [9]): 26%; Cmax [10]: 13100 ng/mL; AUC(0-t) at 24 h [11]: 8100 ng·h/mL; AUC(0-t) at 24 h [15]: 31600 ng·h/mL; Drug uptake (Mus musculus [18]): 15%; half-life [19]: 14.5 h; Cmax [20]: 3490 ng/mL; AUC(0-t) at 24 h [21]: 4530 ng·h/mL; half-life [23]: 7.3 h; bioavailability [24]: 46.2%; Cmax [25]: 1410 ng/mL; half-life [28]: 6.04 h; Tmax [30]: 0.4 h; Tmax [31]: 4.7 h; half-life [32]: 9.4 h; Tmax [35]: 4.8 min |
| COC(=O)c1ccccc1-c1c2ccc(=N)cc-2oc2cc(N)ccc12.Cl [RHODAMINE123] | – | – | – | – | – | – | 32 | – | – | – | – | – | – | – | – | – | – | – |
| NCCCS(=O)(=O)O [TRAMIPROSATE] | – | Non-toxic | 149.6 | 167.2 | 67.3 | 145.3 | – | 131.4 | 194.3 | 174.7 | 147.2 | 131.1 | 130.7 | 18 | 188 | 171.5 | 195.4 | – |
